Data set [1] relates to proximal tubule of the kidneys. The data set is described as follows: comparative investigation of nephrotoxicity in healthy and tumour-bearing rats. In kind it is in vivo. The text has this: In accordance with the set object, comparative investigations were investigated [sic] out with respect to effect on the nephrotoxicity in healthy and tumour-bearing rats after administration of ifosfamide on its own and in combination with L-carnitine. The doses for L-carnitine were selected such that the compound itself causes no side effects at all in the animals.

Data set [2] has as its system rats. The following applies: L-carnitine together with ifosfamide; cited from earlier work.
The test system of data set [3] is tumour-bearing rats. As to the kind of experiment: antitumour action of ifosfamide in combination with L-carnitine. In kind it is in vivo. The conditions noted are these: FIGS. 1 and 2.

Take `C[N+](C)(C)C[C@H](O)CC(=O)[O-]` [L-carnitine]: the “effect on ifosfamide-induced damage to the proximal tubule of the kidney” value in data set [1] (simultaneous administration of L-carnitine 2×100 mg/kg i.v. with ifosfamide, rats) is recorded as “antagonized significantly”. Besides, the clinical result in data set [2] was “decreased lethargy”.

`O=P1(NCCCl)OCCCN1CCCl` (stereo not shown) [ifosfamide]: the “damage to the proximal tubule of the kidneys” value in data set [1] (ifosfamide on its own, healthy and tumour-bearing rats (both animal groups)) is recorded as “clear dose-dependent damage”. Further, the “antitumour action of ifosfamide” value in data set [3] is “not affected”.

The record behind these values is patent US20030040507A1, “Pharmaceutical composition comprising ifosfamide and carnitine” (priority 1997, published 2003).
